Experimental data published in ChEMBL document CHEMBL5331062, “2,6-Difluorobenzamide derivatives as store-operated calcium channel (SOC) inhibitors” (Eur J Med Chem, 2022).
The source made the active and inactive calls. The rule behind the calls is not given here.

Legend:
[1] = test system: Caco-2; assay: Inhibition of cell migration in human Caco-2 cells assessed as reduction in cell motility at 1 uM measured after 24 hrs by wound healing assay; assay type: functional, cell-based
[2] = test system: Caco-2; assay: Inhibition of cell migration in human Caco-2 cells assessed as suppression of cell growth at 1 uM measured after 48 hrs by transwell migration assay; assay type: functional, cell-based
[3] = AUC (0 to infinity) in Sprague-Dawley rat at 2 mg/kg, iv measured upto 24 hrs by LC-MS/MS analysis; assay type: ADME, organism-based; parameters: dose 2 mg/kg, time < 24 hrs, route iv; conditions: in vivo
[4] = test system: Caco-2; assay: Inhibition of SOC activity in human Caco-2 cells co-transfected with STIM1-YFP/Orai1-mCherry assessed as reduction in thapsigargin induced STIM1-Orai1 interaction at 1 uM preincubated with compound for 30 mins followed by thapsigargin induction by time-lapse TIRF-FRET assay; assay type: cell-based
[5] = test system: Caco-2; assay: Inhibition of SOC activity in human Caco-2 cells at 1 uM induced by thapsigargin for 5 mins followed by Ca2+ […] addition and measured after 5 mins after compound addition by Ca2+ imaging method; assay type: cell-based
[6] = Clearance in Sprague-Dawley rat at 2 mg/kg, iv measured upto 24 hrs by LC-MS/MS analysis; assay type: ADME, organism-based; conditions: in vivo
[7] = test system: Caco-2; assay: Inhibition of SOC activity in human Caco-2 cells assessed as stabilization of STIM1-EB1 complex by immunoprecipitation-Western blot analysis; assay type: cell-based
[8] = Volume of distribution at steady state in Sprague-Dawley rat at 2 mg/kg, iv measured upto 24 hrs by LC-MS/MS analysis; assay type: ADME, organism-based; conditions: in vivo, read-out: Vdss
[9] = test system: Caco-2; assay: Inhibition of SOC activity in human Caco-2 cells co-transfected with STIM1-YFP/Orai1-mCherry assessed as reduction in thapsigargin induced STIM1-Orai1 interaction at 1 uM preincubated with thapsigargin for 2 mins followed by compound treatment by calcium influx assay; assay type: cell-based
[10] = Cmax in Sprague-Dawley rat at 20 mg/kg, po measured upto 24 hrs by LC-MS/MS analysis; assay type: ADME, organism-based; parameters: dose 20 mg/kg, time < 24 hrs, route po; conditions: in vivo
[11] = test system: Caco-2; assay: Inhibition of cell invasion in human Caco-2 cells assessed as suppression of cell growth at 1 uM measured after 48 hrs by crystal violet staining based analysis; assay type: functional
[12] = AUC (0 to infinity) in Sprague-Dawley rat at 20 mg/kg, po measured upto 24 hrs by LC-MS/MS analysis; assay type: ADME, organism-based; parameters: dose 20 mg/kg, time < 24 hrs, route po; conditions: in vivo
[13] = Oral bioavailability in Sprague-Dawley rat at 20 mg/kg measured upto 24 hrs by LC-MS/MS analysis; assay type: ADME, organism-based; conditions: in vivo
[14] = test system: Caco-2; assay: Antiproliferative activity against human Caco-2 cells assessed as reduction in cell growth incubated for 24 hrs by WST-8 cell proliferation assay; assay type: functional, cell-based
[15] = test system: Caco-2; assay: Inhibition of SOC activity in human Caco-2 cells co-transfected with STIM1-YFP/Orai1-mCherry assessed as reduction in thapsigargin induced STIM1-Orai1 interaction at 1 uM preincubated with thapsigargin for 2 mins followed by compound treatment by time-lapse TIRF-FRET assay; assay type: cell-based
[16] = Half life in Sprague-Dawley rat at 20 mg/kg, po measured upto 24 hrs by LC-MS/MS analysis; assay type: ADME, organism-based; conditions: in vivo
[17] = Tmax in Sprague-Dawley rat at 20 mg/kg, po measured upto 24 hrs by LC-MS/MS analysis; assay type: ADME, organism-based; conditions: in vivo
[18] = Half life in Sprague-Dawley rat at 2 mg/kg, iv measured upto 24 hrs by LC-MS/MS analysis; assay type: ADME, organism-based; conditions: in vivo

Compound	inhibition [1]	AUC(0-inf) [3] [ng·h/mL]	inhibition [4]	inhibition [5]	clearance [6] [mL/min/kg]	Vd [8] [L/kg]	inhibition [9]	Cmax [10] [ng/mL]	AUC(0-inf) [12] [ng·h/mL]	bioavailability [13] [%]	Activity [14]	half-life [16] [h]	Tmax [17] [h]	half-life [18] [h]	further results
O=C(Nc1ccc(-c2cccc(Cl)c2)cn1)c1c(F)cccc1F	Active	–	–	–	–	–	–	–	–	–	–	–	–	–	–
O=C(Nc1ccc(-c2ccc(F)cc2)cn1)c1c(F)cccc1F	Active	15900	Active	Active	2.4	3.9	Active	2160	54000	34	inactive	16	6	24	inhibition [2]: Active; inhibition [7]: Active; inhibition [11]: Active; inhibition [15]: Active
O=C(Nc1ccc(-c2ccco2)cn1)c1c(F)cccc1F	Active	–	–	Active	–	–	–	–	–	–	–	–	–	–	–
COc1ccc(OC)c(-c2ccc(NC(=O)c3ccncc3F)cc2)c1	–	969	Active	–	34.4	2.4	Active	257	2000	20.6	inactive	2.5	3.3	5.2	–
O=C(Nc1ccc(NC(=O)c2c(F)cccc2F)cc1)c1cncc(F)c1	–	–	–	Active	–	–	–	–	–	–	–	–	–	–	–
COc1ccc(-c2ccc(NC(=O)c3c(F)cccc3F)nc2)cc1OC	–	–	–	Active	–	–	–	–	–	–	–	–	–	–	–
